Reference: US20220288048A1, “PIMAVANSERIN FOR TREATING SCHIZOPHRENIA OR FOR TREATING PSYCHOSIS SECONDARY TO NEURODEGENERATIVE DISORDERS OR DEPRESSIVE DISORDER” (ACADIA Pharmaceuticals Inc., priority 2019, published 2022)
Entries after “also recorded” stand apart in the source; their conditions may differ.

Assays:
[1] = system: adult schizophrenia patients; experiment: 6-week adjunctive pimavanserin study: safety and adverse events; type: in vivo, human
Procedure: The effect of pimavanserin as an adjunctive treatment in adult schizophrenia patients with a persistent inadequate response (i.e., partial responders) to their existing antipsychotic therapy was tested. 396 patients with moderate-to-severe psychotic symptoms were randomized to receive either pimavanserin or placebo added to existing antipsychotic treatment.
Patients were administered a daily dose of pimavanserin or a placebo for six weeks. The dose started at 20 mg and could be adjusted to 34 mg or 10 mg between weeks 1 and 3. The majority of patients (56%) completed the study at the highest dose level.
The safety of the pimavanserin arm was similar to placebo, with no new signals observed. […] The overall number of SAEs and AEs leading to discontinuation was low. The most commonly reported AEs leading to discontinuation of treatment were from the psychiatric disorders system and seen in the active arm.

[2] = system: subjects with schizophrenia who have predominant negative symptoms; experiment: Phase 2, 26-week placebo-controlled study of adjunctive pimavanserin for negative symptoms of schizophrenia: efficacy; type: in vivo, human; settings: for NSA-16 total score vs placebo, effect size: Week 26; for NSA-16 total score, change from Baseline to Week 26: placebo −8.5
Procedure: This study is conducted as a Phase 2, 26-week, randomized, double-blind, placebo-controlled, multicenter, multinational outpatient study in subjects with schizophrenia who have predominant negative symptoms while on adequate treatment with an antipsychotic. Schizophrenia is defined by the Diagnostic and Statistical Manual of Mental Disorders, Fifth Edition (DSM-5), confirmed by a customized module of the Structured Clinical Interview for DSM-5, Clinical Trials Version (SCID-5-CT). This study enrolls approximately 403 subjects with predominant negative symptoms of schizophrenia. In the study, patients were randomized to receive either pimavanserin or placebo added to their current background antipsychotic treatment for 26 weeks in duration. At baseline all patients were started on a daily dose of 20 mg of pimavanserin or placebo with dose adjustments allowed up to 34 mg or down to 10 mg during the first eight weeks of treatment. Following week eight no further dose modifications were allowed for the remaining 18 weeks in the study.
The daily dose of the main antipsychotic must remain stable and may not be changed from Screening through the duration of the study. […] At the Weeks 2, 4, and 8 visits, the daily dose of pimavanserin may remain at 20 mg or it may be either increased to 34 mg (for symptom improvement) or decreased to 10 mg daily (if the 20 mg dose is not well tolerated). After the Week 8 visit, no study drug dose changes may be made. Clinic visits occurring after Baseline will be conducted at Weeks 2, 4, 8, 14, 20, and 26 (End-of-Study [EOS]/Early Termination [ET] visit).
The test products are pimavanserin 10 mg and 17 mg tablets or matching placebo. Daily doses of pimavanserin to be studied are 10 mg (provided as 1×10 mg pimavanserin tablet and 1× matching placebo); 20 mg (2×10 mg pimavanserin tablets); or 34 mg (2×17 mg pimavanserin tablets); or matching placebo (2× placebo tablets); delivered by mouth. Seventeen (17) mg of the active moiety is dosed as 20 mg of the salt pimavanserin tartrate; 10 mg of the active moiety is dosed as 11.8 mg of the salt pimavanserin tartrate. The duration of participation for individual subjects will be up to approximately 34 weeks.
Primary Efficacy Endpoint is the change from Baseline to Week 26 in the Negative Symptom Assessment-16 (NSA-16) total score.
Secondary Endpoints Key Secondary Endpoint is the change from Baseline to Week 26 in the Personal and Social Performance Scale (PSP) score.

[3] = Plasma levels of risperidone in scPCP and ARS-treated mice (mass spectrometer); type: in vivo; settings: 3 mg/kg pimavanserin with 0.2 mg/kg risperidone
Procedure: The behavioral assay, ARS protocol, and scPCP-treatment as described in Example 2 were used. To test the effect of atypical APD and pimavanserin, alone or as con-administration, in scPCP-treated mice (N=10 pairs of mice per group) given 2 h ARS, risperidone (“Risp”) was administered as 0.2 mg/kg or 0.4 mg/kg ip; olanzapine (“Olan”) as 1.0 mg/kg ip; aripiprazole (“Aripi”) as 1.0 mg/kg ip; and pimavanserin (“Pim”) as 3 mg/kg ip to scPCP+ARS(2h) treated male C57BL/6J mice 45 minutes prior to the commencement of the social interaction task in the 10 min social interaction test. Plasma levels of risperidone were measured using a Triple Quad 6500+ mass spectrometer.

[4] = system: scPCP-treated C57BL/6J mice; experiment: 10-min social interaction test in scPCP-treated mice; type: in vivo; settings: pimavanserin 3 and 6 mg/kg ip, alone
Procedure: Negative symptoms model: The behavioral assay utilized to assess negative symptoms was social interaction (SI) task.
Briefly, mice were habituated to the test arena (i.e., the NOR box) for 30 minutes prior to the test day. Pairs of mice, unfamiliar to each other, received either the same treatment (e.g., vehicle and vehicle; N=10 pairs) or different treatments (e.g., vehicle; N=10 and phencyclidine (PCP) 10 mg/kg; N=10). After washout, they were placed in the test arena together for 10 minutes. A heavy object made of Plexiglas or metal was placed in the center of the test arena to quantify the time and nature of interaction of the test animals with an unfamiliar object or an unfamiliar animal. After the 10 min test phase, the object and the arena were cleaned with 70% ethanol to remove any olfactory trails. Behavior was recorded on video for subsequent blind scoring.
The following four behaviors were scored for each animal: • a) Sniffing: A normal mouse engages in sniffing the con-specific mouse's body, including the anogenital area • b) Following: A normal mouse pursues a con-specific mouse around the arena • c) Avoiding: A normal mouse avoids the con-specific mouse and move away from a pursuing mouse if approached • d) Object Exploration: A normal mouse explores the object that is placed in the center of the test arena.
scPCP treatment involved intraperitoneal injection (ip) of 10 mg/kg PCP to male C57BL/6J mice, twice daily (bid) for 7 days, followed by 7 days washout. To test the effect of atypical APD or pimavanserin in scPCP-treated mice (N=10 pairs of mice per group), risperidone was administered as 0.05 mg/kg ip or 0.2 mg/kg ip; and pimavanserin was administered as 3 mg/kg ip or 6 mg/kg ip to scPCP-treated mice 45 minutes prior to the commencement of the social interaction task in the 10 min social interaction test.

CC(C)COc1ccc(CNC(=O)N(Cc2ccc(F)cc2)C2CCN(C)CC2)cc1 [Pimavanserin, N-(4-Fluorophenylmethyl)-N-(1-methylpiperidin-4-yl)-N′-(4-(2-methylpropyloxy)phenylmethyl)carbamide]
Patients who completed the study ([1]; 6-week study): Approximately 88% | QT prolongation ([1]; 6-week study): Minimal QT prolongation | Vital signs, weight, metabolic syndrome, and extrapyramidal symptoms compared to adjunctive placebo ([1]; 6-week study): did not result in clinically significant differences; also recorded: No effect was seen | Any Related Serious Treatment-Emergent Adverse Event, Events n ([1]; Safety Analysis Set, N = 198): 2 | Any Related Serious Treatment-Emergent Adverse Event, Subjects (%) ([1]; Safety Analysis Set, N = 198): 0.5% | Any Related Serious Treatment-Emergent Adverse Event, Subjects n ([1]; Safety Analysis Set, N = 198): 1 | Any Related Treatment-Emergent Adverse Event, Events n ([1]; Safety Analysis Set, N = 198): 46 | Any Related Treatment-Emergent Adverse Event, Subjects (%) ([1]; Safety Analysis Set, N = 198): 16.7% | Any Related Treatment-Emergent Adverse Event, Subjects n ([1]; Safety Analysis Set, N = 198): 33 | Any Serious Treatment-Emergent Adverse Event, Events n ([1]; Safety Analysis Set, N = 198): 3 | Any Serious Treatment-Emergent Adverse Event, Subjects (%) ([1]; Safety Analysis Set, N = 198): 1.0% | Any Serious Treatment-Emergent Adverse Event, Subjects n ([1]; Safety Analysis Set, N = 198): 2 | Any Treatment-Emergent Adverse Event Leading to Discontinuation or Study Termination, Events n ([1]; Safety Analysis Set, N = 198): 7 | Any Treatment-Emergent Adverse Event Leading to Discontinuation or Study Termination, Subjects (%) ([1]; Safety Analysis Set, N = 198): 2.5% | Any Treatment-Emergent Adverse Event Leading to Discontinuation or Study Termination, Subjects n ([1]; Safety Analysis Set, N = 198): 5 | Any Treatment-Emergent Adverse Event, Events n ([1]; Safety Analysis Set, N = 198): 142 | Any Treatment-Emergent Adverse Event, Subjects (%) ([1]; Safety Analysis Set, N = 198): 40.4% | Any Treatment-Emergent Adverse Event, Subjects n ([1]; Safety Analysis Set, N = 198): 80 | Any Serious Treatment-Emergent Adverse Event, Subjects (%) ([1]; Safety Analysis Set, N = 198, listed as pimavanserin): 1% | Adverse events reported in at least 5% of patients ([1]; pimavanserin group, 6-week study): headache, somnolence, and insomnia | NSA-16 total score vs placebo, effect size ([2]; 34 mg dose): 0.34 | NSA-16 total score, change from Baseline to Week 26 ([2]; all pimavanserin doses (10-34 mg daily), added to background antipsychotic): −10.4 | NSA-16 total score vs placebo, effect size ([2]; all pimavanserin doses): 0.21 | Personal and Social Performance Scale, change from Baseline to Week 26 ([2]; key secondary endpoint, placebo 8.1): 8.1 | NSA-16 total score, change from Baseline to Week 26 ([2]; patients who received the 34 mg fixed dose after week 8 (n=107)): −11.6 | Pharmacokinetic effect of pimavanserin on risperidone drug levels [3]: not due to a pharmacokinetic effect | Restoration of SI deficit in scPCP-treated mice [4]: did not restore SI deficit
